Results from patent US20240317744A1, “Bicyclic Ureas As Kinase Inhibitors” (Incyte Corporation, priority 2023, published 2024).

Tests used:
[1] = target: T1, pseudo-kinase domain (JH2, amino-acids 536-812) of human V617F mutant JAK2 (Homo sapiens, UniProt O60674, F794H/V617F/W659A/W777A); assay: JAK2 LanthaScreen JH2-V617F Binding Assay; conditions: JAK2 JH2-V617F 0.26 nM, 50 nM tracer, 1 hour at 25° C.; read-out: JH2 BIND V617F
T1 construct: pseudo-kinase domain (JH2, amino-acids 536-812 with 3 surface mutations W659A, W777A, F794H); His (C); purchased BPS Bioscience 79498; host or cells: baculovirus expression system
In short: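 Serially diluted compounds are mixed with 0.26 nM protein, 50 nM fluorescent JAK2-JH2 tracer and 0.25 nM terbium-labelled streptavidin, then incubated 1 h at 25° C. LanthaScreen signal is read, and IC50 is fitted.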

[2] = target: T2, catalytic domain (JH1, amino acids 826-1132) of human JAK2 (Homo sapiens, UniProt O60674); assay: JAK2 LanthaScreen JH1 Binding Assay; conditions: JAK2 JH1 1.5 nM, 50 nM tracer, 2 hours at 25° C.; read-out: JH1 BIND
T2 construct: catalytic domain (JH1, amino acids 826-1132) of human JAK2; FLAG (N); biotin (biotinylated); purchased Carna Biosciences 08-445-20N; host or cells: baculovirus expression system
In short: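 TR-FRET tracer-displacement format: compound IC50 from four-parameter curves after 2 h at 25° C. Reaction held 1.5 nM biotinylated, FLAG-tagged JH1 (aa 826-1132), 50 nM tracer, 0.5 nM Streptavidin-Tb, pH 7.5 Tris buffer; 2 mM ATP set nonspecific background.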

[3] = target: catalytic domain (JH1, amino acids 808-1132) of human JAK2 (Homo sapiens, UniProt O60674); assay: JAK2 HTRF Enzyme Activity Assay; type: biochemical; conditions: ATP 30 µM, 60 minutes at 25° C.; read-out: V617F ENZ 30 UM
[4] = target: T3, pseudo-kinase domain (JH2, amino-acids 536-812) of human Wild Type JAK2 (Homo sapiens, UniProt O60674, F794H/W659A/W777A); assay: JAK2 LanthaScreen JH2-WT Binding Assay; conditions: JAK2 JH2-WT 0.145 nM, 50 nM tracer, 1 hour at 25° C.; read-out: JH2 BIND WT
T3 construct: pseudo-kinase domain (JH2, amino-acids 536-812 with 3 surface mutations W659A, W777A, F794H); His (C); purchased BPS Bioscience 79463; host or cells: baculovirus expression system
In short: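 Biotinylated His-Avi-tagged JAK2 JH2 (0.145 nM), baculovirus-expressed, incubated with compounds, 50 nM fluorescent JH2 tracer and 0.25 nM streptavidin-Tb, 1 h at 25° C in pH 7.5 Tris buffer with MgCl2 and DTT. Non-specific binding defined with 2 mM ATP. TR-FRET read; IC50 from four-parameter fit.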

T3 sequence (O60674 536-812 W659A/W777A/F794H): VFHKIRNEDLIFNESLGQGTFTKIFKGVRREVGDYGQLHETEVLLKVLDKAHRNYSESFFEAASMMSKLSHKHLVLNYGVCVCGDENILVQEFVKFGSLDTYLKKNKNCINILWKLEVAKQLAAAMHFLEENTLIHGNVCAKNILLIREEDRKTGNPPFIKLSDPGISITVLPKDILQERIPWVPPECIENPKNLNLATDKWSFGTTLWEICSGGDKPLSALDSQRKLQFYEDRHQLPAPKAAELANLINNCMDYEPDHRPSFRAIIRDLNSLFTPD
T1 sequence (O60674 536-812 V617F/W659A/W777A/F794H): as the sequence (O60674 536-812 W659A/W777A/F794H) above, with V82F counted along it
Chain of catalytic domain (JH1, amino acids 808-1132) of human JAK2 (O60674 808-1132 limits assumed): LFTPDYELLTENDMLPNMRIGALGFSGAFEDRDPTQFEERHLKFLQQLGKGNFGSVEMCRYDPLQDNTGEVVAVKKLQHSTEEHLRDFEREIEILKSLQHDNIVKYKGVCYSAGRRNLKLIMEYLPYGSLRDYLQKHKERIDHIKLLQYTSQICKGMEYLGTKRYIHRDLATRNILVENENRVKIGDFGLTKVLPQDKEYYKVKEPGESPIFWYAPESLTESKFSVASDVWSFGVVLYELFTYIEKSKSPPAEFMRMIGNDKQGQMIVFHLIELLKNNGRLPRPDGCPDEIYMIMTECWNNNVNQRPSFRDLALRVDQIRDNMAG
T2 sequence (O60674 826-1132): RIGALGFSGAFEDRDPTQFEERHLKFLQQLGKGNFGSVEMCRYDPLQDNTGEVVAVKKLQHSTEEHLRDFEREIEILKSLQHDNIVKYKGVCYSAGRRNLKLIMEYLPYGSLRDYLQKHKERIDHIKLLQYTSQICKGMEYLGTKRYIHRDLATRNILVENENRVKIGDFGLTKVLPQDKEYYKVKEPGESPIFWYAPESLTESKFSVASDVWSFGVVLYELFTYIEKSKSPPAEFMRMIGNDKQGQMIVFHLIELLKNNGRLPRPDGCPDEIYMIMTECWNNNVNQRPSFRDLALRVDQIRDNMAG

| Structure (SMILES) | IC50 [1] | IC50 [2] | IC50 [3] | IC50 [4] |
| --- | --- | --- | --- | --- |
| COC(=O)N[C@@H]1CC[C@@H](n2c(=O)n(C)c3cnc(Nc4ccnc(N5CCC6(CC6)C5)n4)cc32)C1 [Example 77, Methyl ((1R,3R)-3-(6-((2-(5-azaspiro[2.4]heptan-5-yl)pyrimidin-4-yl)amino)-3-methyl-2-oxo-2,3-dihydro-1H-imidazo[4,5-c]pyridin-1-yl)cyclopentyl)carbamate] | ≤ 10 nM | > 1000 nM | > 1000 nM | ≤ 10 nM |
| [2H]C([2H])([2H])n1c(=O)n([C@H]2CC[C@@](C)(NC(=O)C3CC3)CC2)c2cc(Nc3ccc4c(n3)c(-c3cnn(C(F)(F)F)c3)nn4CC(C)(C)O)ncc21 [Example 120, N-((1s,4s)-4-(6-((1-(2-Hydroxy-2-methylpropyl)-3-(1-(trifluoromethyl)-1H-pyrazol-4-yl)-1H-pyrazolo[4,3-b]pyridin-5-yl)amino)-3-(methyl-d3)-2-oxo-2,3-dihydro-1H-imidazo[4,5-c]pyridin-1-yl)-1-methylcyclohexyl)cyclopropanecarboxamide] | ≤ 10 nM | > 1000 nM | > 1000 nM | ≤ 10 nM |
| COC(=O)N[C@@H]1CC[C@@H](n2c(=O)n(C)c3cnc(Nc4cccc(C(=O)NC5CCCCC5)n4)cc32)C1 [Example 87, Methyl ((1R,3R)-3-(6-((6-(cyclohexylcarbamoyl)pyridin-2-yl)amino)-3-methyl-2-oxo-2,3-dihydro-1H-imidazo[4,5-c]pyridin-1-yl)cyclopentyl)carbamate] | 10 to 100 nM | > 1000 nM | > 1000 nM | ≤ 10 nM |
| [2H]C([2H])([2H])n1c(=O)n([C@@H]2CC[C@@H](NC(=O)OC)C2)c2cc(Nc3cc(C(=O)N4CCOCC4)cc(-c4ccc5c(c4)OCCO5)n3)ncc21 [Example 82, Methyl ((1R,3R)-3-(6-((6-(2,3-dihydrobenzo[b][1,4]dioxin-6-yl)-4-(morpholine-4-carbonyl)pyridin-2-yl)amino)-3-(methyl-d3)-2-oxo-2,3-dihydro-1H-imidazo[4,5-c]pyridin-1-yl)cyclopentyl)carbamate] | ≤ 10 nM | > 1000 nM | > 1000 nM | ≤ 10 nM |
| COC(=O)N[C@@H]1CC[C@@H](n2c(=O)n(C)c3cnc(Nc4ccc(F)c(-c5ccc(OC(F)(F)F)cc5)n4)cc32)C1 [Example 73, Methyl ((1R,3R)-3-(6-((5-fluoro-6-(4-(trifluoromethoxy)phenyl)pyridin-2-yl)amino)-3-methyl-2-oxo-2,3-dihydro-1H-imidazo[4,5-c]pyridin-1-yl)cyclopentyl)carbamate] | 10 to 100 nM | > 1000 nM | > 1000 nM | 10 to 100 nM |
| [2H]C([2H])([2H])n1c(=O)n([C@@H]2CC[C@@H](NC(=O)OC)C2)c2cc(Nc3cc(-c4cnccc4C(F)(F)F)c4c(n3)n(-c3cnn(C(F)F)c3)c(=O)n4C)ncc21 [Example 89, Methyl ((1R,3R)-3-(6-((3-(1-(difluoromethyl)-1H-pyrazol-4-yl)-1-methyl-2-oxo-7-(4-(trifluoromethyl)pyridin-3-yl)-2,3-dihydro-1H-imidazo[4,5-b]pyridin-5-yl)amino)-3-(methyl-d3)-2-oxo-2,3-dihydro-1H-imidazo[4,5-c]pyridin-1-yl)cyclopentyl)carbamate] | ≤ 10 nM | > 1000 nM | > 1000 nM | ≤ 10 nM |
| [2H]C([2H])([2H])n1c(=O)n([C@@H]2CC[C@@H](NC(=O)OC)C2)c2cc(Nc3cc(CNC4CCCC4)cc(-c4ccc5c(c4)OCCO5)n3)ncc21 [Example 65, Methyl ((1R,3R)-3-(6-((4-((cyclopentylamino)methyl)-6-(2,3-dihydrobenzo[b][1,4]dioxin-6-yl)pyridin-2-yl)amino)-3-(methyl-d3)-2-oxo-2,3-dihydro-1H-imidazo[4,5-c]pyridin-1-yl)cyclopentyl)carbamate] | ≤ 10 nM | > 1000 nM | > 1000 nM | ≤ 10 nM |
| [2H]C([2H])([2H])n1c(=O)n([C@@H]2CC[C@@H](NC(=O)OC)C2)c2cc(Nc3cc(-c4cnccc4C(F)(F)F)cc(-c4ccc(C(F)F)s4)n3)ncc21 [Example 154, Methyl ((1R,3R)-3-(6-((6′-(5-(difluoromethyl)thiophen-2-yl)-4-(trifluoromethyl)-[3,4′-bipyridin]-2′-yl)amino)-3-(methyl-d3)-2-oxo-2,3-dihydro-1H-imidazo[4,5-c]pyridin-1-yl)cyclopentyl)carbamate] | ≤ 10 nM | > 1000 nM | > 1000 nM | ≤ 10 nM |
| [2H]C([2H])([2H])n1c(=O)n([C@@H]2CC[C@@H](NC(=O)OC)C2)c2cc(Nc3cc(CN4CC[C@H](F)C4)cc(-c4ccc5c(c4)OCCO5)n3)ncc21 [Example 70, Methyl ((1R,3R)-3-(6-((6-(2,3-dihydrobenzo[b][1,4]dioxin-6-yl)-4-(((S)-3-fluoropyrrolidin-1-yl)methyl)pyridin-2-yl)amino)-3-(methyl-d3)-2-oxo-2,3-dihydro-1H-imidazo[4,5-c]pyridin-1-yl)cyclopentyl)carbamate] | ≤ 10 nM | > 1000 nM | > 1000 nM | ≤ 10 nM |
| COC(=O)N[C@@H]1CC[C@@H](n2c(=O)n(C)c3cnc(Nc4cc(NS(=O)(=O)C5CC(F)(F)C5)cc(C5CCOCC5)c4)cc32)C1 [Example 41, Methyl ((1R,3R)-3-(6-((3-((3,3-difluorocyclobutane)-1-sulfonamido)-5-(tetrahydro-2H-pyran-4-yl)phenyl)amino)-3-methyl-2-oxo-2,3-dihydro-1H-imidazo[4,5-c]pyridin-1-yl)cyclopentyl)carbamate] | 10 to 100 nM | > 1000 nM | > 1000 nM | 10 to 100 nM |
| [2H]C([2H])([2H])n1c(=O)n([C@@H]2CC[C@@](C)(NC(=O)C3CC3)C2)c2cc(Nc3cc(C(=O)N4CCOCC4)c4cccc(C(F)(F)F)c4n3)ncc21 [Example 116, N-((1R,3R)-1-methyl-3-(3-(methyl-d3)-6-((4-(morpholine-4-carbonyl)-8-(trifluoromethyl)quinolin-2-yl)amino)-2-oxo-2,3-dihydro-1H-imidazo[4,5-c]pyridin-1-yl)cyclopentyl)cyclopropanecarboxamide] | ≤ 10 nM | 100 to 500 nM | 100 to 500 nM | ≤ 10 nM |
| COC(=O)N[C@@H]1CC[C@@H](n2c(=O)n(C)c3cnc(Nc4cc(NC(=O)OC5CCC5)cc(-c5cnn(C)c5)c4)cc32)C1 [Example 56, Methyl ((1R,3R)-3-(6-((3-((cyclobutoxycarbonyl)amino)-5-(1-methyl-1H-pyrazol-4-yl)phenyl)amino)-3-methyl-2-oxo-2,3-dihydro-1H-imidazo[4,5-c]pyridin-1-yl)cyclopentyl)carbamate] | ≤ 10 nM | > 1000 nM | > 1000 nM | ≤ 10 nM |
| [2H]C([2H])([2H])n1c(=O)n([C@@H]2CC[C@@H](NC(=O)OC)C2)c2cc(Nc3ccc4c(n3)c(-c3cnn(C(F)(F)F)c3)nn4CC(C)(C)O)ncc21 [Example 118, Methyl ((1R,3R)-3-(6-((1-(2-hydroxy-2-methylpropyl)-3-(1-(trifluoromethyl)-1H-pyrazol-4-yl)-1H-pyrazolo[4,3-b]pyridin-5-yl)amino)-3-(methyl-d3)-2-oxo-2,3-dihydro-1H-imidazo[4,5-c]pyridin-1-yl)cyclopentyl)carbamate] | ≤ 10 nM | > 1000 nM | > 1000 nM | ≤ 10 nM |
| COC(=O)Nc1cc(Nc2cc3c(cn2)n(C)c(=O)n3C2CC3CC2CN3C(C)=O)cc(-c2cnn(C)c2)c1 (stereo not drawn) [Example 40, Methyl (3-((1-(2-acetyl-2-azabicyclo[2.2.1]heptan-5-yl)-3-methyl-2-oxo-2,3-dihydro-1H-imidazo[4,5-c]pyridin-6-yl)amino)-5-(1-methyl-1H-pyrazol-4-yl)phenyl)carbamate] | 10 to 100 nM | > 1000 nM | > 1000 nM | 10 to 100 nM |
| Cn1c(=O)n(C2CCOC2)c2cc(Nc3cc(NC(=O)OC4CCC4)cc(-c4cnn(C5CC5)c4)c3)ncc21 (stereo not drawn) [Example 62, Cyclobutyl (3-(1-cyclopropyl-1H-pyrazol-4-yl)-5-((3-methyl-2-oxo-1-(tetrahydrofuran-3-yl)-2,3-dihydro-1H-imidazo[4,5-c]pyridin-6-yl)amino)phenyl)carbamate] | 100 to 500 nM | > 1000 nM | > 1000 nM | 100 to 500 nM |
